Reference: patent US8497367B2, “Sucralose purification process” (Tate & Lyle Technology Limited, priority 2008, dated 2013)

Assay: Distribution coefficient K of sucralose between ethyl acetate (light phase) and aqueous DMAHCl/NaCl solution (heavy phase)
Type: physicochemical
Details: about 37 g ethyl acetate
Method: The solutions were all clear and colorless at room temperature.
Each sample was shaken with about 37 g of ethyl acetate (EA). The mixture was allowed to settle, resulting in the formation of a heavy phase (aqueous) and a light phase (EA based). The weights of these respective phases were recorded and each phase was analysed for its sucralose content. The dry solids content of each phase was also measured by evaporation to dryness (moisture balance).
From the data presented, it is possible to calculate the distribution coefficient K for each experiment, where K is defined as: K=(Wt % Sucralose in light phase)/(Wt % sucralose in heavy phase)

Structure (SMILES): OC[C@H]1O[C@H](O[C@]2(CCl)O[C@H](CCl)[C@@H](O)[C@@H]2O)[C@H](O)[C@@H](O)[C@H]1Cl [Sucralose, 4,1′,6′-trichloro-4,1′,6′-trideoxygalactosucrose]
- Calculated K / Actual K = (Wt % Sucralose in light phase)/(Wt % sucralose in heavy phase) (Exp #3, feed wt % on water: DMAHCL 0.36%, NaCl 9.87%, sucralose 27.58%): 1.38
- Calculated K / Actual K = (Wt % Sucralose in light phase)/(Wt % sucralose in heavy phase) (Exp #4, feed wt % on water: DMAHCL 0.41%, NaCl 2.10%, sucralose 27.06%): 0.93
- Calculated K / Actual K = (Wt % Sucralose in light phase)/(Wt % sucralose in heavy phase) (Exp #5, feed wt % on water: DMAHCL 5.07%, NaCl 9.75%, sucralose 27.31%): 1.09
- Calculated K / Actual K = (Wt % Sucralose in light phase)/(Wt % sucralose in heavy phase) (Exp #8, feed wt % on water: DMAHCL 4.99%, NaCl 2.04%, sucralose 27.01%): 0.83
- Calculated K / Actual K = (Wt % Sucralose in light phase)/(Wt % sucralose in heavy phase) (Exp #9, feed wt % on water: DMAHCL 2.55%, NaCl 5.15%, sucralose 13.98%): 0.76
